Measured values: PMC8138313, “Identification, Selection and Immune Assessment of Liver Stage CD8 T Cell Epitopes From Plasmodium falciparum” (Frontiers in Immunology, 2021)
Where a SMILES comes first, the peptide text is derived from it.

Assays:
Test in all cases: HLA class I binding assay (cell-free competition, fluorescence polarization)
HLA B*4402 = HLA B*4402 (Homo sapiens, UniProt P01889, A223V/A65T/A93T/A95T/D201E/D98Y/E176V/E187L/E204Q/E69K/G107R/H137Y/K202T/L105A/L119I/N104T/N87E/Q56L/Q94N/R106L/R155S/R180D/S101N/S121R/S35A/S48T/T118I/V36M/W191S/Y140D/Y91S)
HLA A*0301 = HLA A*0301 (Homo sapiens, UniProt P04439)
HLA A*0101 = HLA A*0101 (Homo sapiens, UniProt P04439, A114D/A174V/A182V/D101N/D185E/E176A/E190D/L180R/Q94H/R68K/S129P/T187R/V100A/V91M/W191G)
HLA A*0201 = HLA A*0201 (Homo sapiens, UniProt P04439, D140Y/D185E/D98H/E176V/E277Q/G131W/G231S/I119V/I121R/I166T/I218V/L300P/L318F/N151K/N90K/P208A/P217A/Q86G/Q94H/R138H/R169H/T345S)
HLA B*0702 = HLA B*0702 (Homo sapiens, UniProt P01889)
HLA A*2402 = HLA A*2402 (Homo sapiens, UniProt P04439, D101N/D140Y/D185E/E176V/E190D/F33S/G103R/G107R/I119L/I121M/I306V/K335N/L105A/L180Q/L300P/N151K/N90K/Q86E/Q94H/R106L/R138H/R89G/T104I/T345S/V100E/W191G/Y123F)

SMILES: C[C@H](N)C(=O)N[C@@H](CO)C(=O)N[C@@H](Cc1ccccc1)C(=O)N[C@@H](CO)C(=O)N[C@@H](C)C(=O)N[C@@H](CO)C(=O)N[C@H](C(=O)NCC(=O)N[C@@H](Cc1ccc(O)cc1)C(=O)O)[C@@H](C)O (H-ASFSASTGY-OH)
- IC50 (HLA B*4402): 31.7 µM
- IC50 (HLA A*0301): 2.37 µM
- IC50 (HLA A*0101): > 1000 µM

SMILES: CC(C)[C@H](NC(=O)[C@H](CCC(=O)O)NC(=O)[C@H](Cc1ccccc1)NC(=O)[C@@H](NC(=O)[C@H](CC(=O)O)NC(=O)[C@@H](N)CC(=O)O)[C@@H](C)O)C(=O)N[C@@H](Cc1ccc(O)cc1)C(=O)N[C@@H](CO)C(=O)N[C@@H](CCC(=O)O)C(=O)N[C@@H](Cc1ccc(O)cc1)C(=O)O (H-DDTFEVYSEY-OH; N-terminus assumed)
- IC50 (HLA B*4402): > 1000 µM
- IC50 (HLA A*0101): > 1000 µM

SMILES: CC[C@H](C)[C@H](NC(=O)CNC(=O)[C@H](CO)NC(=O)[C@H](CC(N)=O)NC(=O)[C@H](CC(=O)O)NC(=O)[C@@H](N)Cc1ccccc1)C(=O)N[C@@H](CO)C(=O)N[C@@H](CC(C)C)C(=O)N[C@@H](CC(C)C)C(=O)O (H-FDNSGISLL-OH)
- IC50 (HLA B*4402): > 1000 µM
- IC50 (HLA A*0201): 229 µM

SMILES: CC[C@H](C)[C@H](NC(=O)[C@H](CC(N)=O)NC(=O)[C@H](CCCCN)NC(=O)[C@H](CCCCN)NC(=O)[C@H](CCCCN)NC(=O)[C@H](CC(C)C)NC(=O)[C@@H](N)Cc1ccccc1)C(=O)N[C@H](C(=O)N[C@@H](CC(C)C)C(=O)O)[C@@H](C)O (H-FLKKKNITL-OH)
- IC50 (HLA B*0702): 25.4 µM
- IC50 (HLA A*0201): 5.34 µM

SMILES: CC(C)C[C@H](NC(=O)[C@H](CO)NC(=O)[C@@H]1CCCN1C(=O)[C@H](CCCCN)NC(=O)[C@H](CC(N)=O)NC(=O)[C@H](CC(C)C)NC(=O)[C@H](CC(C)C)NC(=O)[C@H](CCCCN)NC(=O)[C@@H]1CCCN1C(=O)[C@@H](N)Cc1ccccc1)C(=O)O (H-FPKLLNKPSL-OH)
- IC50 (HLA B*0702): 73.1 µM

SMILES: N=C(N)NCCC[C@H](NC(=O)[C@H](Cc1ccc(O)cc1)NC(=O)[C@H](CCCCN)NC(=O)[C@@H]1CCCN1C(=O)[C@@H](N)Cc1c[nH]cn1)C(=O)N[C@@H](CC(N)=O)C(=O)N[C@@H](Cc1ccccc1)C(=O)N[C@@H](CCCCN)C(=O)N[C@@H](Cc1ccccc1)C(=O)O (H-HPKYRNFKF-OH)
- IC50 (HLA B*0702): 0.336 µM

SMILES: CC[C@H](C)[C@H](NC(=O)[C@H](CC(N)=O)NC(=O)[C@@H](NC(=O)[C@@H]1CCCN1C(=O)[C@H](CCSC)NC(=O)[C@@H]1CCCN1C(=O)[C@@H](N)Cc1c[nH]cn1)[C@@H](C)CC)C(=O)N[C@@H](CCCCN)C(=O)N[C@@H](CC(C)C)C(=O)O (H-HPMPINIKL-OH)
- IC50 (HLA B*0702): 0.168 µM

SMILES: CC[C@H](C)[C@H](N)C(=O)N1CCC[C@H]1C(=O)N1CCC[C@H]1C(=O)N[C@@H](CCC(N)=O)C(=O)N[C@H](C(=O)N[C@@H](Cc1ccccc1)C(=O)N[C@@H](CC(=O)O)C(=O)N[C@@H](Cc1ccc(O)cc1)C(=O)N1CCC[C@H]1C(=O)N[C@H](C(=O)O)[C@@H](C)CC)C(C)C (H-IPPQVFDYPI-OH)
- IC50 (HLA B*0702): 245 µM

SMILES: CC[C@H](C)[C@H](NC(=O)[C@H](CO)NC(=O)[C@H](CCCCN)NC(=O)[C@H](CO)NC(=O)[C@H](CC(N)=O)NC(=O)[C@@H](NC(=O)[C@H](CO)NC(=O)[C@H](Cc1ccc(O)cc1)NC(=O)[C@H](CC(C)C)NC(=O)[C@@H](N)CCCCN)[C@@H](C)CC)C(=O)O (H-KLYSINSKSI-OH)
- IC50 (HLA B*0702): 225 µM
- IC50 (HLA A*0201): 57.7 µM

SMILES: N=C(N)NCCC[C@H](NC(=O)[C@H](Cc1c[nH]c2ccccc12)NC(=O)[C@H](Cc1ccccc1)NC(=O)[C@H](CC(N)=O)NC(=O)[C@@H]1CCCN1C(=O)[C@@H](N)CCCCN)C(=O)N[C@@H](Cc1ccccc1)C(=O)N[C@@H](CCC(N)=O)C(=O)N[C@@H](CC(=O)O)C(=O)N[C@@H](Cc1ccc(O)cc1)C(=O)O (H-KPNFWRFQDY-OH; N-terminus assumed)
- IC50 (HLA B*0702): > 1000 µM

SMILES: CC(C)C[C@H](NC(=O)[C@H](CC(=O)O)NC(=O)[C@H](CCCNC(=N)N)NC(=O)[C@H](CCCNC(=N)N)NC(=O)[C@H](CC(=O)O)NC(=O)[C@H](CO)NC(=O)[C@H](CC(N)=O)NC(=O)[C@H](CC(C)C)NC(=O)[C@@H](N)CC(C)C)C(=O)O (H-LLNSDRRDL-OH)
- IC50 (HLA B*0702): 0.2 µM

SMILES: CC[C@H](C)[C@H](NC(=O)[C@@H]1CCCN1C(=O)[C@@H](N)CC(C)C)C(=O)N[C@@H](CCC(=O)O)C(=O)N1CCC[C@H]1C(=O)N[C@@H](CCCCN)C(=O)N[C@@H](CCCCN)C(=O)N[C@@H](CC(C)C)C(=O)N[C@@H](C)C(=O)O (H-LPIEPKKLA-OH)
- IC50 (HLA B*0702): 561 µM

SMILES: CC(C)C[C@H](NC(=O)[C@H](CCC(N)=O)NC(=O)[C@@H](NC(=O)[C@@H]1CCCN1C(=O)[C@@H](N)CC(N)=O)C(C)C)C(=O)N[C@@H](CCCCN)C(=O)N[C@@H](CO)C(=O)N[C@@H](CCCCN)C(=O)N[C@@H](Cc1ccccc1)C(=O)O (H-NPVQLKSKF-OH)
- IC50 (HLA B*0702): 59.6 µM

SMILES: CC(C)C[C@H](NC(=O)[C@H](CC(N)=O)NC(=O)[C@H](CC(C)C)NC(=O)[C@@H](N)CCCNC(=N)N)C(=O)N[C@@H](Cc1ccccc1)C(=O)N[C@@H](CS)C(=O)N[C@@H](Cc1ccccc1)C(=O)N[C@@H](CO)C(=O)N[C@@H](Cc1ccccc1)C(=O)O (H-RLNLFCFSF-OH)
- IC50 (HLA B*4402): > 1000 µM
- IC50 (HLA A*2402): 11 µM

SMILES: CC(C)C[C@H](NC(=O)[C@H](Cc1ccccc1)NC(=O)[C@H](CO)NC(=O)[C@H](Cc1ccccc1)NC(=O)[C@H](CS)NC(=O)[C@H](Cc1ccccc1)NC(=O)[C@H](CC(C)C)NC(=O)[C@H](CC(N)=O)NC(=O)[C@H](CC(C)C)NC(=O)[C@@H](N)CCCNC(=N)N)C(=O)O (H-RLNLFCFSFL-OH)
- IC50 (HLA B*4402): 421 µM
- IC50 (HLA A*0301): 6.12 µM
- IC50 (HLA A*0201): 161 µM

SMILES: CC[C@H](C)[C@H](NC(=O)[C@H](CC(N)=O)NC(=O)[C@@H](N)CCCNC(=N)N)C(=O)N[C@H](C(=O)N[C@@H](CO)C(=O)N[C@@H](CCCCN)C(=O)N[C@@H](Cc1c[nH]cn1)C(=O)N[C@H](C(=O)N[C@@H](CO)C(=O)N[C@H](C(=O)O)C(C)C)[C@@H](C)O)[C@@H](C)CC (H-RNIISKHTSV-OH)
- IC50 (HLA B*0702): 505 µM

SMILES: CC[C@H](C)[C@H](NC(=O)[C@@H](N)CO)C(=O)N[C@@H](C)C(=O)N[C@@H](CO)C(=O)N[C@@H](CCCCN)C(=O)N[C@@H](CC(N)=O)C(=O)N[C@@H](CC(C)C)C(=O)N[C@@H](CCSC)C(=O)N[C@@H](Cc1c[nH]c2ccccc12)C(=O)N[C@H](C(=O)O)C(C)C (H-SIASKNLMWV-OH)
- IC50 (HLA A*0301): > 1000 µM
- IC50 (HLA B*0702): > 1000 µM
- IC50 (HLA A*0201): 284 µM

SMILES: CC(C)C[C@H](NC(=O)[C@H](Cc1ccccc1)NC(=O)[C@@H]1CCCN1C(=O)[C@H](Cc1c[nH]cn1)NC(=O)[C@H](CCCCN)NC(=O)[C@@H](N)CO)C(=O)N[C@@H](CCCCN)C(=O)N[C@@H](CO)C(=O)NCC(=O)N[C@@H](Cc1ccccc1)C(=O)O (H-SKHPFLKSGF-OH; N-terminus assumed)
- IC50 (HLA B*4402): > 1000 µM

SMILES: CSCC[C@H](NC(=O)[C@@H](NC(=O)[C@H](CC(=O)O)NC(=O)[C@H](Cc1c[nH]cn1)NC(=O)[C@@H]1CCCN1C(=O)[C@@H](N)CO)[C@@H](C)O)C(=O)N[C@@H](CCC(N)=O)C(=O)N[C@@H](CCCCN)C(=O)N[C@@H](CC(=O)O)C(=O)N[C@@H](CC(=O)O)C(=O)O (H-SPHDTMQKDD-OH; N-terminus assumed)
- IC50 (HLA B*0702): > 1000 µM

SMILES: CSCC[C@H](NC(=O)[C@H](CC(N)=O)NC(=O)[C@H](CCCCN)NC(=O)[C@H](CC(N)=O)NC(=O)[C@H](CCCCN)NC(=O)[C@H](Cc1ccccc1)NC(=O)[C@H](Cc1ccc(O)cc1)NC(=O)[C@H](CCC(=O)O)NC(=O)[C@@H](N)[C@@H](C)O)C(=O)O (H-TEYFKNKNM-OH)
- IC50 (HLA B*4402): 31.4 µM

SMILES: CC[C@H](C)[C@H](NC(=O)[C@@H](N)[C@@H](C)O)C(=O)N[C@@H](Cc1ccc(O)cc1)C(=O)NCC(=O)N[C@@H](CCCCN)C(=O)NCC(=O)NCC(=O)N[C@@H](Cc1ccccc1)C(=O)N[C@@H](CCC(N)=O)C(=O)N[C@@H](Cc1ccccc1)C(=O)O (H-TIYGKGGFQF-OH)
- IC50 (HLA B*0702): 109 µM

SMILES: CC[C@H](C)[C@H](NC(=O)[C@H](CCCCN)NC(=O)CNC(=O)CNC(=O)[C@H](CC(C)C)NC(=O)[C@H](CCC(N)=O)NC(=O)[C@H](CO)NC(=O)[C@H](CCC(=O)O)NC(=O)[C@@H](N)Cc1ccc(O)cc1)C(=O)O (H-YESQLGGKI-OH)
- IC50 (HLA B*4402): 66.3 µM

SMILES: CC[C@H](C)[C@H](NC(=O)[C@@H]1CCCN1C(=O)[C@@H](N)Cc1ccc(O)cc1)C(=O)N[C@@H](CCC(=O)O)C(=O)N[C@@H](CCCCN)C(=O)N[C@@H](CC(C)C)C(=O)NCC(=O)N[C@@H](Cc1c[nH]cn1)C(=O)N[C@H](C(=O)O)C(C)C (H-YPIEKLGHV-OH)
- IC50 (HLA B*0702): 0.257 µM

SMILES: CC(C)C[C@H](NC(=O)[C@H](C)NC(=O)[C@H](CC(=O)O)NC(=O)[C@H](Cc1ccccc1)NC(=O)[C@@H](NC(=O)[C@H](CC(N)=O)NC(=O)[C@@H]1CCCN1C(=O)[C@@H]1CCCN1C(=O)[C@@H](N)Cc1ccccc1)[C@@H](C)O)C(=O)O [FPPNTFDAL] (H-FPPNTFDAL-OH)
- IC50 (HLA B*0702): 2.72 µM

SMILES: CC(C)C[C@H](NC(=O)[C@H](C)NC(=O)[C@H](CO)NC(=O)[C@@H](NC(=O)[C@H](CCCCN)NC(=O)[C@H](CC(=O)O)NC(=O)[C@H](CCCNC(=N)N)NC(=O)[C@H](CS)NC(=O)[C@@H](N)Cc1c[nH]cn1)[C@@H](C)O)C(=O)O [HCRDKTSAL] (H-HCRDKTSAL-OH)
- IC50 (HLA B*0702): 28.6 µM
